Assay results: patent US6225478A, “Iridoid derivatives and neovascularization inhibitors containing the same as active ingredient” (Tsumura & Co., priority 1999, dated 2001)
≈ marks a conversion by molar mass, not a printed value. Where two headings read alike, the source gives them in different places.

What was measured:
Type in all cases: cell-based
[1] = system: human umbilical-vein endothelial cells (HUVEC); experiment: Cell Migration Assay (CMA) Test, HUVEC (% relative to control); settings: for activity at 1 µg/mL / activity at 10 µg/mL: Homo sapiens, HUVEC
Experimental: (§1) Furthermore, the sample liquids of compounds used in the CPA and CMA tests were prepared in the manner described below. Firstly, after weighing out each compound, a calculated amount of DMSO was added. After dissolving the compound in the DMSO, phosphate buffered physiological saline (PBS (-)) was added to bring the sample concentration to 1 mg/ml in PBS (-). The amount of DMSO used to dissolve the compounds was adjusted in advance to that the concentration of DMSO at that time was 5%. The resulting liquids were diluted 10-fold with 5% DMSO-PBS (-) solution to prepare sample solutions having a concentration of 0.1 mg/ml. In the TFA test, 320 μl of the prepared 1 mg/ml sample solutions were removed followed by addition of 680 μl of PBS (-) to prepare samples having a concentration of […]. Moreover, 100 μl of this solution was removed followed by addition of 900 μl of PBS (-) to dilute 10-fold and prepare samples having a concentration of 1 μg/ml. P [Cell Proliferation Assay (CPA) Test]
After disseminating the 7th subculture of HUVEC obtained from the first generation in the same manner as above at 4 ml/well (3.0×10^5 cells/well) in a collagen-coated 6-well plate (NUNC), the cells were cultured for 48 hours at 37° C. in the presence of 5% CO2. The cells reached nearly a completely confluent state as a result of this culturing.
A double-edged, disposable razor blade was divided into four sections, of which one of those sections was pinched between a pair of forceps. Using this piece of razor blade, the cell surface in the above confluent state was scraped off. Two areas of the cell surface were scraped off in each well.
After washing the surface of the wells from which the cells had been scraped off with medium, 4.0 ml of fresh M199 (2+) medium were added followed by addition of 40 μl or 4 μl of sample solution (1 mg/ml). The cells were cultured for 24 hours at 37° C. in the presence of 5% CO2. After discarding the culture liquid, the cells were fixed for 30 minutes with methanol. Next, after staining the cells for 4 hours with Giemsa stain, the plates were washed with tap water and air dried.
Measurement of cell migration was performed by microscopically counting the number of cells that had newly migrated within the range of a 1 mm×1 mm block. […] The total number of cells counted in blocks 1 through 5 were then totaled to determine the overall total number of cells. Four fields were counted for each well.
Evaluation was performed determining the cell migration (%) according to the following formula.
Cell migration rate=number of migrating cells to which sample was added×100/number of migrating of control (+)
Control (+) indicates the number of migrating cells in the control well containing M199 (2+).

[2] = system: human umbilical-vein endothelial cells (HUVEC); experiment: Tube Formation Assay (TFA) Test, HUVEC in collagen gel; settings: for inhibition at 1 µg/mL / inhibition at 10 µg/mL: Homo sapiens, HUVEC, read-out: TFA (inhibition rate, %)
In short: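 Inhibition rate (%) of tube formation is computed from tube lengths against control (+) and control (-), measured after 20 h at 37 °C in M-199 with 20% FCS, 30 ng/ml b-FGF and 0.1 μM PMA. Samples were applied to HUVEC on collagen and covered by a second collagen layer (double-layer gel).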

[3] = system: human umbilical-vein endothelial cells (HUVEC); experiment: Cell Proliferation Assay (CPA) Test, HUVEC, MTT; settings: M199 (2+) medium; for IC50: Homo sapiens, read-out: CPA (IC50 μg/ml)
Experimental: as §1
100 μl of the 7th subculture obtained from first generation human umbilical-vein endothelial cells (HUVEC) were disseminated in the wells (N=3) of a 96-well plate (Iwaki, Cat. #4860-010) at a cell concentration of 5×10^4 cells/ml. M-199 medium containing +20% FCS, 10 ng/ml of b-FGF and 10 ng/ml of EGF (abbreviated as "M199 (2+)") was used for the medium.
After culturing for 24 hours at 37° C. in the presence of 5% CO2 under the above conditions, 20 μl/well of MTT solution (solution containing 5 mg/ml of PBS (-)) were added to the control well followed by accurately culturing for 4 hours at 37° C. in the presence of 5% CO2. Following completion of culturing, 100 μl/well of a stop solution (0.001 N aqueous HCl solution containing 10% SDS) were added. On the other hand, 10 μl/well of sample solutions at concentrations of 1 mg/ml and 0.1 mg/ml were added to the other wells.
After culturing for 24 hours at 37° C. in the presence of 5% CO2, the medium was replaced and 100 μl/well of M199 (2+) were added. The samples were also replaced in each well at this time.
Moreover, after additionally culturing for 48 hours at 37° C. in the presence of 5% CO2, 20 μl/well of MTT solution were added to the wells containing sample and the control well followed by accurately culturing for 4 hours at 37° C. and adding 100 μl/well of stop solution.

[4] = 1 μg/ml, 24 hours, 60% or less = remarkable inhibition, read-out: CMA (% relative to control)
[5] = 10 μg/ml, 24 hours, 60% or less = remarkable inhibition, read-out: CMA (% relative to control)
[6] = 20 h, 1 μg/ml, 20 hours, 40% or less judged remarkable
[7] = 20 h, 10 μg/ml, 20 hours, 40% or less judged remarkable
[8] = 1 μg/ml, 20 hours, 40% or less judged remarkable
[9] = 10 μg/ml, 20 hours, 40% or less judged remarkable

Q: With CNC(=O)O[C@@H]1OCC(C(=O)OC)[C@H]2C[C@@H]3O[C@]3(C)C12 (stereo in doubt) [Compound 55, (1S,4R,4aS,6S,7R,7aR)-6,7-epoxy-7-methyl-1-(methylcarbamoyloxy)-1,3,4,4a,5,6,7,7a-octahydrocyclopenta [c] pyrane-4-carboxylic acid methylester] as the compound, how does the activity at 1 µg/mL [1, 4] read?
A: 97.8%

Q: And the activity at 10 µg/mL [1, 5]?
A: 91.8%

Q: And the inhibition at 1 µg/mL [2, 6]?
A: 13.9%

Q: What about the inhibition at 10 µg/mL [2, 7] of the same compound?
A: 3.8%

Q: What about the IC50 [3] of the same compound?
A: > 100 µg/mL

Q: What does the source list for CCN(CC)C(=O)C1=CO[C@@H](OC(=O)NC)[C@@H]2[C@@H]1C[C@@H]1O[C@]21C [compound 19, (1S,4aS,6S,7R,7aR)-6,7-epoxy-1,4a,5,6,7,7a-hexahydro-7-methyl-1-(methylcarbamoyloxy) cyclopenta [c]-pyrane-4-carboxylic acid diethylamide]?
A: activity at 1 µg/mL [1, 4]: 96.4%; activity at 10 µg/mL [1, 5]: 93.5%; inhibition at 1 µg/mL [2, 6]: 23.6%; inhibition at 10 µg/mL [2, 7]: 21.3%; IC50 [3]: > 100 µg/mL

Q: For CN(Cc1cnc2nc(N)nc(N)c2n1)c1ccc(C(=O)N[C@@H](CCC(=O)O)C(=O)O)cc1 [MTX, Methotrexate, reference compound], which activity at 1 µg/mL [1, 4] is on record?
A: 102%

Q: And the activity at 10 µg/mL [1, 5]?
A: 103%

Q: What about the inhibition at 1 µg/mL [2, 8] of the same compound?
A: 37.5%

Q: What about the inhibition at 10 µg/mL [2, 9] of the same compound?
A: 42.6%

Q: What about the IC50 [3] of the same compound?
A: 0.04 µg/mL (≈ 0.088 µM)

Q: Which results are given for CNC(=O)O[C@@H]1OC=C(C(=O)OC/C=C(\C)CCC=C(C)C)[C@H]2C[C@@H]3O[C@]3(C)[C@H]12 [compound 6, (1S,4aS,6S,7R,7aR)-6,7-epoxy-1,4a,5,6,7,7a-hexahydro-7-methyl-1-(methylcarbamoyloxy) cyclopenta [c]-pyrane-4-carboxylic acid geranyl ester]?
A: activity at 1 µg/mL [1, 4]: 106%; activity at 10 µg/mL [1, 5]: 105%; inhibition at 1 µg/mL [2, 6]: 24.2%; inhibition at 10 µg/mL [2, 7]: 8.7%; IC50 [3]: > 100 µg/mL

Q: Which “CMA (% relative to control)” value ([1]; 1 μg/ml, 24 hours, 60% or less = remarkable inhibition) does the source give for CNC(=O)OC=C(C(=O)OC)[C@@H]1CC[C@]2(C)O[C@@]12CO [compound 54, 2-[(1S,2R,3S)-2,3-epoxy-2-(hydroxymethyl)-3-methyl-2-cyclopentyl]-3-[(methylcarbamoyl)oxy] methylacrylate] here?
A: 90.5%

Q: And the “CMA (% relative to control)” value ([1]; 10 μg/ml, 24 hours, 60% or less = remarkable inhibition)?
A: 86.2%

Q: And the “TFA (inhibition rate, %)” value [2, 8]?
A: -8.6%

Q: And the “TFA (inhibition rate, %)” value [2, 9]?
A: -12.2%

Q: What about the “CPA (IC50 μg/ml)” value [3] of the same compound?
A: > 100.0 µg/mL

Q: What does the source list for CCNC(=O)O[C@@H]1OC=C(C(=O)OC)[C@H]2C[C@@H]3O[C@]3(C)[C@H]12 [compound 30, (1S,4aS,6S,7R,7aR)-6,7-epoxy-1-(ethylcarbamoyloxy)-1,4a,5,6,7,7a-hexahydro-7-methylcyclopenta [c] pyrane-4-carboxylic acid methylester]?
A: activity at 1 µg/mL [1, 4]: 90%; activity at 10 µg/mL [1, 5]: 105%; inhibition at 1 µg/mL [2, 6]: 16.5%; inhibition at 10 µg/mL [2, 7]: 36%; IC50 [3]: > 100 µg/mL

Q: Which activity at 1 µg/mL ([1]; 24 h, read-out: CMA (% relative to control), 1 μg/ml, 60% or less = remarkable inhibition) does the source give for CNC(=O)O[C@@H]1OC=C(C(=O)O)[C@H]2C[C@@H]3O[C@]3(C)[C@H]12 [compound 2, sodium (1S,4aS,6S,7R,7aR)-6,7-epoxy-1,4a,5,6,7,7a-hexahydro-7-methyl-1-(methylcarbamoyloxy) cyclopenta [c]-pyrane-4-carboxylic acid] here?
A: 88.4%

Q: What about the activity at 10 µg/mL ([1]; 24 h, read-out: CMA (% relative to control), 10 μg/ml, 60% or less = remarkable inhibition) of the same compound?
A: 95.8%

Q: And the inhibition at 1 µg/mL ([2]; 20 h)?
A: 69.1%

Q: And the inhibition at 10 µg/mL ([2]; 20 h)?
A: 56.9%

Q: Which activity at 1 µg/mL [1, 4] does the source give for CNC(=O)O[C@@H]1OC=C(C(=O)OC)[C@H]2C[C@@H]3O[C@]3(CCl)C12 (stereo in doubt) [compound 51, (1S,4aS,6S,7R,7aR)-6,7-epoxy-7-(chloromethyl)-1-(methylcarbamoyloxy)-1,4a,5,6,7,7a-hexahydrocyclopenta [c]pyrane-4-carboxylic acid methylester] here?
A: 102%

Q: What about the activity at 10 µg/mL [1, 5] of the same compound?
A: 101%

Q: And the inhibition at 1 µg/mL [2, 6]?
A: 19.1%

Q: What about the inhibition at 10 µg/mL [2, 7] of the same compound?
A: -1.4%

Q: What about the IC50 [3] of the same compound?
A: > 100 µg/mL

Q: How did the activity at 1 µg/mL [1, 4] turn out when CNC(=O)O[C@@H]1OC=C(C(=O)OC)[C@H]2C[C@@H]3O[C@]3(COC(C)=O)[C@@H]12 [compound 46, (1S,4aS,6S. 7R,7aR)-7-(acetoxymethyl)-6,7-epoxy-1-(methylcarbamoyloxy)-1,4a,5,6,7,7a-hexahydro [c] pyrane-4-carboxylic acid methylester] was run?
A: 105%

Q: And the activity at 10 µg/mL [1, 5]?
A: 103%

Q: What about the inhibition at 1 µg/mL [2, 6] of the same compound?
A: -0.8%

Q: And the inhibition at 10 µg/mL [2, 7]?
A: 1.5%

Q: What about the IC50 [3] of the same compound?
A: > 100 µg/mL

Q: Which results are given for CCCCCCNC(=O)C1=COC(OC(=O)NC)C2C1CC1OC12C [compound 17, (1S,4aS,6S,7R,7aR)-6,7-epoxy-1,4a5 6,7,7a-hexahydro-7-methyl-1-(methylcarbamoyloxy) cyclopenta [c]-pyrane-4-carboxylic acid n-hexylamide]?
A: activity at 1 µg/mL [1, 4]: 94.4%; activity at 10 µg/mL [1, 5]: 114%; inhibition at 1 µg/mL [2, 6]: 19%; inhibition at 10 µg/mL [2, 7]: 23.4%; IC50 [3]: 69.1 µg/mL (≈ 196 µM)

Q: For CNC(=O)O[C@@H]1OC=C(C(=O)OC)[C@H]2C[C@@H]3OC3(COC(=O)OC)C12 (stereo in doubt) [compound 47, (1S,4aS,6S,7R,7aR)-6,7-epoxy-7-(methoxycarbonyloxymethyl)-1-(methylcarbamoyloxy)-1,4a,5,6,7,7a-hexahydrocyclopenta [c] pyrane-4-carboxylic acid methylester], which activity at 1 µg/mL [1, 4] is on record?
A: 95.9%

Q: What about the activity at 10 µg/mL [1, 5] of the same compound?
A: 60.5%

Q: And the inhibition at 1 µg/mL [2, 6]?
A: -27.3%

Q: What about the inhibition at 10 µg/mL [2, 7] of the same compound?
A: 2.6%

Q: What about the IC50 [3] of the same compound?
A: > 100 µg/mL

Q: CN(C)c1ccc(O)c2c1C[C@H]1C[C@H]3[C@H](N(C)C)C(O)=C(C(N)=O)C(=O)[C@@]3(O)C(O)=C1C2=O [Minocycline, reference compound] was tested. Which activity at 1 µg/mL [1, 4] did it give?
A: 67.3%

Q: What about the activity at 10 µg/mL [1, 5] of the same compound?
A: 51.6%

Q: What about the inhibition at 1 µg/mL [2, 6] of the same compound?
A: 42.1%

Q: And the inhibition at 10 µg/mL [2, 7]?
A: 56.7%

Q: What does the source list for CCCCCCNC(=O)O[C@@H]1OC=C(C(=O)OC)[C@H]2C[C@@H]3O[C@]3(C)[C@H]12 [compound 33, (1S,4aS,6S,7R,7aR)-6,7-epoxy-1-(n-hexylcarbamoyloxy)-1,4a,5,6,7,7a-hexahydro-7-methylcyclopenta [c] pyrane-4-carboxylic acid methylester]?
A: activity at 1 µg/mL [1, 4]: 109%; activity at 10 µg/mL [1, 5]: 102%; IC50 [3]: > 100 µg/mL

Q: What does the source list for CO[C@@H]1[C@H](OC(=O)/C=C/C=C/C=C/C=C/C(=O)O)CC[C@]2(CO2)[C@H]1[C@@]1(C)O[C@@H]1CC=C(C)C [Fumagilline, reference compound]?
A: activity at 1 µg/mL [1, 4]: 95.5%; activity at 10 µg/mL [1, 5]: 74.2%; IC50 [3]: 33.3 µg/mL (≈ 72.6 µM)
